Assay results as given in patent US20150141411A1, “SUBSTITUTED 3,4-DIHYDRO-2H-PYRIDO[1,2-A]PYRAZINE-1,6-DIONE DERIVATIVES USEFUL FOR THE TREATMENT OF (INTER ALIA) ALZHEIMER'S DISEASE” (Janssen Pharmaceuticals, Inc., priority 2012, published 2015).
Structures can show the parent of a compound that is named as a salt.

How the values were obtained:
γ-secretase [1] = biological target: T1, γ-secretase (Homo sapiens, UniProt P49768); test: Screening for γ-secretase-modulating activity: Aβ42 in supernatant of SKNBE2 cells carrying hAPP 695 wild type (Alphalisa); assay type: cell-based; conditions: SKNBE2 human neuroblastoma cells carrying hAPP 695 wild type, overnight incubation, Aβ42 in cell supernatant
T1 construct: endogenous in cells; host or cells: SKNBE2 human neuroblastoma cells (carrying hAPP 695 wild type as substrate)
Method in brief: (§1)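 SKNBE2 neuroblastoma cells expressing wild-type hAPP 695 plated at 10^4 cells/well in Ultraculture with test compound, incubated overnight at 37° C. Aβ42 (C-terminal/N-terminal antibody pair) and Aβtotal (N-terminal/4G8 pair) in supernatant quantified by AlphaLISA. IC50 from 4-parameter fit of percent of compound-free control.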

γ-secretase [2] = biological target: T1, γ-secretase; test: Screening for γ-secretase-modulating activity: Aβtotal in supernatant of SKNBE2 cells carrying hAPP 695 wild type (Alphalisa); assay type: cell-based; conditions: SKNBE2 human neuroblastoma cells carrying hAPP 695 wild type, overnight incubation, Aβtotal in cell supernatant
Method in brief: as §1

melting point [°C] | IC50 (γ-secretase [1]) [nM] | IC50 (γ-secretase [2]) [nM] | SMILES
213.2 |  |  | Cc1cn(-c2ccc3n(c2=O)C[C@@H](C)N(C(C)c2cc(CC4CC4)cc(C(F)(F)F)c2)C3=O)cn1 (single isomer, unassigned) (as salt: HCl) [compound 135]
146.2 |  |  | CCC(c1cc(OC)cc(C(F)(F)F)c1)N1C(=O)c2ccc(-n3cnc(C)c3)c(=O)n2C[C@H]1C (single isomer, unassigned) (as salt: HCl) [compound 141]
141.4 |  |  | CCC(c1cc(OC)cc(C(F)(F)F)c1)N1C(=O)c2ccc(-n3cnc(C)c3)c(=O)n2C[C@H]1C (single isomer, unassigned) (as salt: HCl) [compound 142]
229.3 |  |  | CCOc1cc(C(C)N2C(=O)c3ccc(-n4cnc(C)c4)c(=O)n3C[C@H]2C)cc(C(F)(F)F)c1 (single isomer, unassigned) (as salt: HCl) [compound 143]
194.4 |  |  | CCOc1cc(C(C)N2C(=O)c3ccc(-n4cnc(C)c4)c(=O)n3C[C@H]2C)cc(C(F)(F)F)c1 (single isomer, unassigned) (as salt: HCl) [compound 144]
122 |  |  | COc1cc(C(C)N2C(=O)c3ccc(-n4cnc(C)c4)c(=O)n3C[C@H]2C)cc(C(F)(F)F)c1 (single isomer, unassigned) (as salt: HCl) [compound 149]
181.1 | 660 | > 10000 | Cc1cn(-c2ccc3n(c2=O)CCN(C(C)c2cccc(C(F)(F)F)c2)C3=O)cn1 (single isomer, unassigned) [11a]
181 | 7760 | > 10000 | Cc1cn(-c2ccc3n(c2=O)CCN(C(C)c2cccc(C(F)(F)F)c2)C3=O)cn1 (single isomer, unassigned) [11b]
176.7 | 1700 | > 10000 | Cc1cn(-c2ccc3n(c2=O)CCN(Cc2cccc(Cl)c2)C3=O)cn1 [compound 25]
184.4 | 1660 | > 10000 | Cc1cn(-c2ccc3n(c2=O)CCN(CCc2ccc(Cl)cc2)C3=O)cn1 [compound 26]
224.9 | 510 | > 10000 | Cc1cn(-c2ccc3n(c2=O)CCN(Cc2cccc(Cl)c2Cl)C3=O)cn1 [compound 36]
190.8 | 330 | 3630 | Cc1cn(-c2ccc3n(c2=O)CCN(Cc2ccc(Cl)c(Cl)c2)C3=O)cn1 [compound 38]
183.4 | 740 | > 10000 | Cc1cn(-c2ccc3n(c2=O)CCN(Cc2cccc(C(F)(F)F)c2)C3=O)cn1 [compound 42]
164.9 | 620 | > 10000 | Cc1cn(-c2ccc3n(c2=O)C[C@@H](C)N(Cc2ccc(C(F)(F)F)cc2)C3=O)cn1 [compound 43]
219 | 210 | > 10000 | Cc1cn(-c2ccc3n(c2=O)CCN(Cc2cc(C(F)(F)F)cc(C(F)(F)F)c2)C3=O)cn1 [compound 53]
227.5 | 3800 | > 10000 | Cc1cn(-c2ccc3n(c2=O)CCN(c2cccc(C(F)(F)F)c2F)C3=O)cn1 [compound 55]
197.6 | 1700 | > 10000 | Cc1cn(-c2ccc3n(c2=O)CCN(Cc2cccc(C(F)(F)F)c2F)C3=O)cn1 [compound 56]
248.6 | > 10000 | > 10000 | Cc1cn(-c2ccc3n(c2=O)CCN(c2cccc(C(F)(F)F)c2C)C3=O)cn1 [compound 57]
199.4 | 830 | > 10000 | Cc1cn(-c2ccc3n(c2=O)CCN(Cc2cccc(C(F)(F)F)c2C)C3=O)cn1 [compound 58]
132.4 | 190 | > 10000 | COc1cc(CN2C(=O)c3ccc(-n4cnc(C)c4)c(=O)n3C[C@H]2C)cc(C(F)(F)F)c1 [compound 68]
177 | 1020 | > 10000 | COc1ccc(CN2CCn3c(ccc(-n4cnc(C)c4)c3=O)C2=O)cc1C(F)(F)F [compound 69]
108.5 | 580 | > 10000 | Cc1cn(-c2ccc3n(c2=O)C[C@@H](C)N(Cc2cc(C(F)(F)F)ccc2F)C3=O)cn1 [compound 70]
227.4 | 2570 | > 10000 | Cc1cn(-c2ccc3n(c2=O)CCN(Cc2ccc(F)cc2C)C3=O)cn1 [compound 73]
163.4 | 380 | > 10000 | Cc1cn(-c2ccc3n(c2=O)CCN(Cc2cccc(OC(F)(F)F)c2)C3=O)cn1 [compound 74]
214.1 | 980 | > 10000 | Cc1cn(-c2ccc3n(c2=O)CCN(Cc2ccc(OC(F)(F)F)cc2C)C3=O)cn1 [compound 75]
208 | 30 |  | Cc1cn(-c2ccc3n(c2=O)CCN(Cc2c[nH]c4c(Cl)cc(Cl)cc24)C3=O)cn1 [compound 260]

Continued, molecule first:

SMILES | melting point [°C] | IC50 (γ-secretase [1]) [nM] | IC50 (γ-secretase [2]) [nM]
Cc1cn(-c2ccc3n(c2=O)C[C@@H](C)N(C(C)c2cccc(OC(F)(F)F)c2)C3=O)cn1 (single isomer, unassigned) (as salt: HCl) [compound 147] | 232.9 |  | 
Cc1cn(-c2ccc3n(c2=O)CCN(C(C)c2ccc(Cl)c(Cl)c2)C3=O)cn1 (single isomer, unassigned) [9a] | 206.8 | 4470 | > 10000
Cc1cn(-c2ccc3n(c2=O)CCN(C(C)c2cccc(Cl)c2Cl)C3=O)cn1 (single isomer, unassigned) [10b] | 206.4 | 6610 | > 10000
Cc1cn(-c2ccc3n(c2=O)CCN(C(C)c2cn(C)c4cc(F)c(Cl)cc24)C3=O)cn1 (single isomer, unassigned) [compound 186] | 261 | 780 | > 10000
Cc1cn(-c2ccc3n(c2=O)CC(C)N(C(C)c2cn(C)c4cc(F)c(Cl)cc24)C3=O)cn1 (single isomer, unassigned) [compound 190] | 255 | 10 | 3310
Cc1cn(-c2ccc3n(c2=O)CCN(C(C)c2cc(Cl)cc(Cl)c2)C3=O)cn1 (single isomer, unassigned) [compound 208] | 206 | 3890 | > 10000
Cc1cn(-c2ccc3n(c2=O)C[C@@H](C)N(C(C)c2cc(Cl)cc(Cl)c2)C3=O)cn1 (single isomer, unassigned) [compound 211] | 146 | 90 | > 10000
CCn1cc(C(C)N2C(=O)c3ccc(-n4cnc(C)c4)c(=O)n3CC2C)c2cc(Cl)cc(F)c21 (single isomer, unassigned) [compound 221] | 194 | 5 | 790
Cc1cn(-c2ccc3n(c2=O)CC(C)N(C(C)c2cn(C)c4c(F)cc(Cl)cc24)C3=O)cn1 (single isomer, unassigned) [compound 223] | 243 | 220 | 6610
Cc1cn(-c2ccc3n(c2=O)CCN(CCC2CCCCC2)C3=O)cn1 [compound 18] | 192.6 | 1700 | > 10000
Cc1cn(-c2ccc3n(c2=O)C[C@@H](C)N(CC2(c4ccccc4C)CC2)C3=O)cn1 [compound 20] | 199.8 | 1550 | > 10000
Cc1cn(-c2ccc3n(c2=O)C[C@@H](C)N(Cc2ccccc2C)C3=O)cn1 [compound 21] | 163 | 1950 | > 10000
Cc1cn(-c2ccc3n(c2=O)CCN(CCOCc2ccc(Cl)cc2)C3=O)cn1 [compound 27] | 168 | 590 | > 10000
Cc1cn(-c2ccc3n(c2=O)C[C@@H](C)N(CC2(c4ccc(Cl)cc4)CC2)C3=O)cn1 [compound 28] | 157.4 | 280 | > 10000
Cc1cn(-c2ccc3n(c2=O)CCN(CC2(c4ccc(Cl)cc4)CC2)C3=O)cn1 [compound 29] | 227.1 | 270 | > 10000
Cc1cn(-c2ccc3n(c2=O)CCN(C2CC2c2ccc(Cl)cc2)C3=O)cn1 (stereo not drawn) [compound 30] | 168.5 | 2040 | > 10000
Cc1cn(-c2ccc3n(c2=O)C[C@@H](C)N(Cc2cccc(Cl)c2F)C3=O)cn1 [compound 35] | 182.2 | 1020 | > 10000
Cc1cn(-c2ccc3n(c2=O)C[C@@H](C)N(Cc2cccc(Cl)c2C)C3=O)cn1 [compound 40] | 182.1 | 510 | > 10000
COc1ccc(CN2C(=O)c3ccc(-n4cnc(C)c4)c(=O)n3C[C@H]2C)cc1C(F)(F)F [compound 67] | 140.2 | 560 | > 10000
Cc1cn(-c2ccc3n(c2=O)C[C@@H](C)N(Cc2cccc(N4CCCCC4)c2)C3=O)cn1 [compound 84] | 108.2 | 230 | > 10000
Cc1cn(-c2cc(Cl)c3n(c2=O)CCN(Cc2cccc(-c4ccccc4)c2)C3=O)cn1 [compound 88] | 136.5 | 1860 | > 10000
Cc1cncn1-c1ccc2n(c1=O)CCN(Cc1ccccc1)C2=O [compound 89] | 146.5 | > 10000 | > 10000
